Laboratory results as given in patent publication US8673313B2, “Cell penetrating peptides and its use fused to biomolecules with therapeutic action” (priority 2007, dated 2014).
Ends that are not written are not given here.

How the values were obtained:
J774 cells [1] = test: Western blot: internalization of the cargo protein E7 to the cell; assay type: cell-based; details: 25 μM protein, J774, 4 hours at 37° C., FIG. 5
Experimental: The cells J774 grown overnight at 37° C. and 5% of CO2 with RPMI 1640, 10% inactivated calf fetal serum and 2 mM de glutamine. After that, the cell were aliquoted in tubes with 5×10^6 cells each and incubated with 25 μM of fusion protein LALF-E7, 25 μM of protein E7 and PBS during 4 hours at 37° C. The sedimentation of the cells was made by a centrifugation to 1000 rpm by 10 minutes. Wash pellet in three changes of PBS. Cells were ruptured in 100 μL of RIPA buffer (Promega) mixed in vortex per 10 second and 2 min in ice. The sedimentation of the broken cells was made by a centrifugation to 12000 rpm by 15 minutes. Protein concentration was determined to the cell extract and rum 10 μg of total protein in 15% polyacrilamide gel. Subsequently the gel was transferred to a nitrocellulose membrane. The membrane was incubated for 2 hours at room temperature with an IgG goat polyclonal antibody anti-E7 HPV 16 (Santa Cruz) diluted in PBS (1:100). Wash in three changes of PBS. Subsequently, the membrane was incubated for 45 minutes at room temperature and in a dark room with an anti-goat IgG peroxidase conjugate (Sigma) diluted in PBS (1:5000). Wash in three changes of PBS. Finally the ECL system from Amersham Pharmacia Biotech was used.

J774 cells [2] = test: Fluorescence microscopy: internalization of the cargo protein E7 to the cell; assay type: cell-based; details: 1.66 μM protein, J774, 37° C., 30 min, 1 hour and 2 hours, FIG. 4
Experimental: Cells J774 grown on sterile glass cover slips of 22 mm overnight at 37° C. and 5% of CO2 with RPMI 1640, 10% inactivated calf fetal serum and 2 mM de glutamine. Then, different glass cover slips incubated with 1.66 μM fusion protein LALF-E7, 1.66 μM of protein E7 and PBS (as negative control) a 37° C. per 30 min, 1 hour and 2 hours. CasKi cells (human cells expressing HPV 16) grown as positive control in the same experimental conditions.
After incubation the cells were washed briefly with PBS and fix cells by 4% paraformaldehide per 20 min at room temperature. Wash in three changes of PBS. The permeabilization of the cells was with 0.5% Tritón X-100 for 15 min a room temperature. Wash in three changes of PBS. Then, the cells were incubating for 1 hour in 1% blocking SFB in PBS at room temperature. Wash in three changes of PBS. Cells were incubated with goat IgG anti E7/HPV 16 polyclonal antibody (Santa Cruz) diluted in PBS 1:50. Wash extensively with PBS. Incubate with anti-goat-fluorescein IgG polyclonal antibody (Santa Cruz) diluted in PBS 1:50 for 45 minutes in a dark chamber. Wash extensively with PBS. Mount cover slip with aqueous mounting medium. Examine using a fluorescence microscope with appropriate filters.

[3] = system: cells with different histological origins (J774, CasKi, HeLa, TC-1, Hep2); test: Internalization of CPP LALF or their analogues to cells with different histological origins (fluorescence microscopy); assay type: cell-based; details: 25 or 50 μM biotinylated peptide, 37° C., streptavidin-fluorescein, FIG. 1
Experimental: (§1) Different cellular lines were used in this realization (Table 1). Cells grown on sterile glass cover slips of 22 mm overnight at 37° C. and 5% of CO2 with RPMI 1640, 10% inactivated calf fetal serum and 2 mM de glutamine. Then, 25 or 50 μM de CPP LALF or their biotinylated analogues L-2 y L-20 added and incubated at 37° C. and 4° C. in different times (10 min, 20 min, 30 min, 1 h y 2 h). Wash briefly with PBS and fix cells by 4% paraformaldehide per 20 min at room temperature. Wash in three changes of PBS. The permeabilization of the cells was with 0.5% Tritón X-100 for 15 min a room temperature. Wash in three changes of PBS. The cells were incubating for 1 hour in 1% blocking SFB in PBS at room temperature. Wash in three changes of PBS. Incubate with 1:50000 in PBS streptavidin-fluorescein for 45 minutes in a dark chamber. Wash extensively with PBS. Mount cover slip with aqueous mounting medium. Examine using a fluorescence microscope with appropriate filters.
(§2) As a negative control were used not related biotinylated and cells without peptide.

murine splenocytes = test: Internalization of the analogues L-2 and L-20 to murine splenocytes (confocal microscopy); assay type: cell-based, mice C57BL/6; details: 0.8 mg biotinylated peptide (278-280 μM), 37° C., 10 min to 18 h, FIG. 2
Experimental: For the splenocytes isolation, the mice C57BL/6 were sacrificed by break-up of the cervical and the splenocytes were removed aseptically. The cellular suspensions of the animals by each group met in pool and they were homogenized smoothly. The splenocytes were washed and the erythrocytes were lysed with a solution of NH4C10.83%. After washing, the splenocytes are divided en different tubes with 20×10^6 of cells in 10 mL of fresh medium RPMI 1640 supplemented with 7% de fetal bovine serum. Each preparation was incubated with 0.8 mg of the biotinylated peptides L-2 (278 μM) y L-20 (280 μM) in different times: 10 min, 30 min, 1 h and 18 h. The incubations were at 37° C. and 5% de CO2. The cells on sterile glass cover slips were fixed, permeabilized and treated with propidium Iodide for to stain the nucleus and with streptavidine-fluorescein for detection of peptides inside the cells.

J774 cells [4] = test: Fluorescence microscopy: internalization of the cargo protein GFP to the cell; assay type: cell-based; details: FIG. 6
Source text: The protein produced in E. coli from the recombinant fusion LALF-GFP (GFP-English, green fluorescence protein) was used to verify that the CPP LALF or its analogues could internalize the cargo protein. The GFP (GenBank Accession #U55762) was obtained using the polymerase chain reaction from plasmid pEGFP-N1 of Clontech using oligonucleotides with SEQ ID N0. 11 and 12. Both oligonucleotides have restricted sites used for cloning (HindIII-sense and BamHI-antisense).
For the construction of recombinant fragment, synthetic LALF and GFP gene obtained by PCR were inserted with the T4 ligase in the vector pM238, similar as in the example III. The recombinant clone is identified with the SEQ ID N0. 13 and 14.
With the recombinant and purified LALF-GFP protein was performed an similar experiment to the example V, but in this case the cells J774 incubated with LALF-GFP, LALF biotinilade, GFP and PBS.

J774 cells [5] = test: Internalization of CPP LALF in J774 cells at 4° C. (fluorescence microscopy); assay type: cell-based; details: J774, 4° C., 10 min incubation, FIG. 1
Experimental: as §1, §2

Substance | internalization into cells [3] | internalization into splenocytes (murine splenocytes) | other results
E7: recombinant protein E7 of HPV 16, unfused comparator [reference compound] | – | – | detection of protein in cell extract by anti-E7 antibody (Western blot) (J774 cells [1]): not detected any recognition; internalization of E7 (fluorescent cells, anti-E7 antibody) (J774 cells [2]): Negative results
L-12: analogous peptide of LALF 32-51 with alanine substitution in the position 12 (SEQ ID N0. 4) (HYRIKPTFRRLAWKYKGKFW; Artificial Sequence Description Analogue L-12) | similar | similar | –
L-20: analogous peptide of LALF 32-51 with alanine substitution in the position 20 (SEQ ID N0. 5) (HYRIKPTFRRLKWKYKGKFA; Artificial Sequence Description Analogue L-20) | – | internalized in a short times of incubation (30 min) | –
LALF-biotinilado: biotinylated CPP LALF peptide used as comparator in the GFP experiment (HYRIKPTFRRLKWKYKGKFW; also: biotinylated, site not given here; UniProt P07086 32-51, looked up, fragment) | – | – | internalization of GFP (fluorescent cells) (J774 cells [4]): fluorescent cells
LALF: peptide corresponding to the region 32-51 of LALF protein (SEQ ID N0. 1) (HYRIKPTFRRLKWKYKGKFW; Artificial Sequence Description Synthetic Gen CPP LALF) | internalized in different cell types and short incubation times (30 min) | similar | internalization into cells (J774 cells [5]): internalized in the cells J774 with only 10 min of the incubation at 4 °C
